Reference: US20080118494A1, “Compositions For Detection Of Latent Hiv Reactivation And Methods Of Using The Same” (priority 2004, published 2008)

Assays:
[1] = system: latent HIV-1 infection in bulk population of latently infected JLTRG cells; test: Reactivation of latent HIV-1 in a bulk population of latently infected cells, flow cytometry; format: cell-based; conditions: optimal concentration of each compound, day 57 bulk population, 100,000 viable cells counted
Method: (A) Jurkat cells were infected with an EGFP expressing, replication incompetent reporter virus and the level of productive HIV-1 infection at each indicated time-point was directly assessed by flow cytometric analysis for EGFP expression (untreated; black circles). Levels of initial non-productive and later on latent HIV-1 infection was determined 24 hours following TNF-α stimulation (black squares). The results represent the mean ±S.D. of three independent experiments.
a) Quantification of the HIV-1 reactivating capabilities of test compounds. Following infection, HIV-1 integrates into the cellular genome. Integration is random, although HIV-1 preferentially integrates into euchromatin structures. Latency development can be thus influenced by a multitude of factors that alter gene expression or DNA structure, such as divergent gene expression patterns or the cell cycle stage at the time point of viral integration. Although the reporter cell lines are representative for the majority of latently infected cells and reliably identify most reactivating agents during the screening effort, they can not allow quantification of the capability of the individual compounds to reactivate HIV-1 infection from a diverse population of latently infected cells. To account for the influence that the side of integration of a latent virus can have on a compounds ability to reactivate the virus, a bulk population of latently infected cells (FIG. 7) was established. Following infection of JLTRG cells with HIV-1 NL43, a rapid increase of the level of infection can be observed. On day 3, an average 27% of the cells were productively infected. […] Until day 15, the percentage of productively infected cells rapidly declined to 3% of the overall cell population. At this time point, an additional 5% of the cells were non-productively infected. […] Since 1×10^6 cells were initially infected, and virus mediated inhibition of cell proliferation influences the relative level of infection over time can be excluded, it can be calculated that the latently infected cell population should consist of […] individual latently infected cells. This bulk population of cells allows quantification of the capability of the respective compounds to reactivate latent HIV-1. […] Each compound was titrated over a two-log concentration range to allow for optimal reactivation. The results for the optimal concentration of each compound are depicted in FIG. 7B. […] TNF-α (10 ng/ml) reactivated latent HIV-1 infection in 5% of the cells, whereas the DNA histone deacetylase inhibitors trichostatin A (TSA) and sodium butyrate (NaBu) reactivated latent HIV-1 infection in only 3% or 2.5% of the cells, respectively. To achieve an accurate estimate of the differences in the capability of different agents to reactivate HIV-1 infection it is important to run a sufficiently high number of cells. For this flow cytometry based analysis, 100,000 cells viable per sample were counted.

[2] = system: latent HIV-1 infection in human thymocytes derived from SCID-hu (Thy/liv) mice; test: Ex vivo reactivation of latent HIV-1 in thymocytes from infected SCID-hu (Thy/Liv) mice, EYFP flow cytometry; format: cell-based; conditions: for EYFP+ cells: 24 h after depletion of EYFP+ cells, untreated 50; for induction of latent HIV-1 expression in thymocytes: range among tissue samples of four animals
Method: SCID-hu (Thy/liv) mice were infected with HIV-1 NLENY1-IRES, and thymocytes were isolated 2-4 weeks following infection. Cells were cultured for two days in the presence of AZT and indinavir to stop de novo infection and then subjected to fluorescence activated cell sorting to remove all EYFP^+ cells. Immediately following cell separation, the cells were seeded at a concentration of 1×10^6 cell/ml, cultured in supplemented RPMI 1640 to determine levels of spontaneous reactivation, stimulated with PMA, TNF-α, activating anti-CD28 antibody (clone 5D10) and the […] sodium butyrate (NaBu; two animals only). Levels of reactivation achieved in HIV-1 infected thymocytes derived from 4 different SCID-hu (Thy/liv) mice following ex vivo reactivation with the indicated stimulators are depicted as fold induction of […].
Isolation of thymocytes from SCID-hu (Thy/Liv) mice. Thy/Liv implants from the infected mice were harvested 2-4 weeks post infection and single cell suspensions generated by dissociation of the tissue. Thymocytes were isolated by Ficoll-Paque density gradient centrifugation and were cultured for two days in RPMI 1640 supplemented with 10% heat-inactivated FBS, 2 mM L-glutamine, 100 U/ml of penicillin, and 100 μg/ml of streptomycin, in the presence of indinavir and AZT, to inhibit de novo infection. Productively infected thymocytes, which expressed EYFP, were then removed from the cultures by FACS sorting. Purity of the resulting EYFP-negative cell population was determined by flow cytometric analysis for EYFP and was usually greater than 99.9%. Immediately following the sort, cells were stimulated. HIV-1 reactivation, as indicated by the de novo expression of EYFP was quantified by flow cytometry, acquiring at least 1×10^6 cells per sample in the live gate.
Reactivation of latent HIV-1 infection by anti-CD28 antibodies in human thymocytes derived from SCID-hu (Thy/liv) mice. Whether activating anti-CD28 antibody would also reactivate latent HIV-1 in a system where latency in primary cells was achieved under in vivo conditions was tested. For this purpose, a modification of the HIV-1 established SCID-hu (Thy/Liv) mouse system was used that has been previously used for the study of HIV-1 latency. Brooks et al., Nat. Med. 7:459-464 (2001). SCID-hu (Thy/Liv) mice were infected with HIV-1 NLENY1-IRES to allow for the easy and direct detection of infected cells using flow cytometry. Levy et al., Proc. Nat. Acad. Sci. 101:4204-4209 (2004). […] Levels of infection were determined by flow cytometry for EYFP, and varied in the different animals between 0.5 and 6% of the total thymocyte population. […] The cultures were then subjected to fluorescence activated cell sorting to remove all EYFP positive cells. […]

Molecule	cells in which latent HIV-1 infection was reactivated [1]	EYFP+ cells [2]	induction of latent HIV-1 expression in thymocytes [2]
CCCCCCCCCCCCCC(=O)O[C@@H]1[C@@H](C)[C@@]2(O)[C@@H](C=C(CO)C[C@]3(O)C(=O)C(C)=C[C@@H]23)[C@@H]2C(C)(C)[C@]12OC(C)=O [PMA, 13-phorbol-12-myristate acetate]	7%	260 cells of 1×10^6 cells	2.5-7 fold
TNF-α	5%	250 cells of 1×10^6 cells	3-6 fold
